From ChEMBL document CHEMBL4411288, “Design, synthesis and biological evaluation of novel 7-amino-[1,2,4]triazolo[4,3-f]pteridinone, and 7-aminotetrazolo[1,5-f]pteridinone derivative as potent antitumor agents” (Eur J Med Chem, 2019) come the findings set out here.

In one experiment the test system is PC-3. The experiment can be described thus: Cytotoxicity against human PC3 cells assessed as reduction in cell viability after 72 hrs by MTT assay. The format is functional, cell-based. The conditions noted are these: PC-3, 72 h. (In general: Formazan colour is commonly taken as a measure of viable cells.)
A further experiment relates to MDA-MB-231. The experiment is described as follows: cells. As to conditions: Homo sapiens, MDA-MB-231, 72 h.
The test system of a further experiment is A549. The experiment can be described thus: Cytotoxicity against human A549 cells assessed as reduction in cell viability after 72 hrs by MTT assay. It is filed as functional, cell-based. The conditions noted are these: A549, 72 h.
In a further experiment the test system is HCT-116. The experiment is described as follows: Cytotoxicity against human HCT116 cells assessed as reduction in cell viability after 72 hrs by MTT assay. The conditions noted are these: HCT-116, 72 h. It is filed as functional, cell-based.
The test system of the next experiment is MCF7. The experiment is described as follows: cells. As to conditions: Homo sapiens, MCF7, 72 h.
The target of experiment [1] is Serine/threonine-protein kinase PLK1 (Homo sapiens) (UniProt P53350). The experiment can be described thus: Inhibition of recombinant human N-terminal His6-tagged PLK1 expressed in baculovirus infected Sf21 insect cells at 1 uM using FAM-labelled peptide as substrate preincubated for 10 mins followed by substrate addition measured after 1 hr relative to control.
Serine/threonine-protein kinase PLK1 (Homo sapiens), sequence (P53350 whole entry): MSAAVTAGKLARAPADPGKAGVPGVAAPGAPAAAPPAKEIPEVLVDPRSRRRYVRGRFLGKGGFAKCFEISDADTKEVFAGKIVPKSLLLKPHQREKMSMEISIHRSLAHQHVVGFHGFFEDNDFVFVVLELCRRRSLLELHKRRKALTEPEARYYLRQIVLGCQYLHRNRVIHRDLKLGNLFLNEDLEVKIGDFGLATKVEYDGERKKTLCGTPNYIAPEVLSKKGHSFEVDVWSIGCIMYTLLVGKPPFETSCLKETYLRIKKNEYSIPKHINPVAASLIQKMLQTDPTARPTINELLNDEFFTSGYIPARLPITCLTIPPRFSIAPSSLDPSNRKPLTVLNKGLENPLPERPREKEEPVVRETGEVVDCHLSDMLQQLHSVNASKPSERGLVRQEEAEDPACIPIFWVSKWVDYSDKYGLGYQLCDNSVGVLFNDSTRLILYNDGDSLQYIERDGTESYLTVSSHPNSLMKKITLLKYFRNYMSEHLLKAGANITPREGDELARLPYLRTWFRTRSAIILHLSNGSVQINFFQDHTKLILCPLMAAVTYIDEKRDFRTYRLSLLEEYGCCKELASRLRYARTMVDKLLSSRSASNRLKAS

Description for MCF7: Cytotoxicity against human MCF7 cells assessed as reduction in cell viability after 72 hrs by MTT assay
Description for MDA-MB-231: Cytotoxicity against human MDA-MB-231 cells assessed as reduction in cell viability after 72 hrs by MTT assay

A word on the IC50: it is the midpoint of a concentration-inhibition curve. Consider `CC(=O)c1c(C)c2cnc(Nc3ccc(N4CCNCC4)cn3)nc2n(C2CCCC2)c1=O` [PALBOCICLIB], for which the IC50 was 2.2 µM in the experiment with PC-3; 3.5 µM in the experiment on MDA-MB-231; 1.32 µM in the experiment with A549; 8.9 µM in the experiment with HCT-116; 4.09 µM with MCF7.
As for `O=c1c2nncn2c2cnc(Nc3ccc(NC4CCCC4)cc3)nc2n1C1CCCC1`, the IC50 in the experiment with PC-3 is more than 50 µM; in the experiment on MDA-MB-231 it was more than 50 µM; in the experiment with A549, more than 50 µM; in the experiment with HCT-116 it was 21.2 µM; in the experiment on MCF7 it was more than 50 µM.
`O=c1c2nnnn2c2cnc(Nc3ccc(N4CCCCC4)cc3)nc2n1C1CCCC1`: the IC50 with PC-3 is more than 50 µM; in the experiment with MDA-MB-231 it was more than 50 µM; in the experiment with A549, 1.16 µM; in the experiment with HCT-116 it was more than 50 µM; in the experiment on MCF7, more than 50 µM.
Turning to `Cc1nnc2c(=O)n(C3CCCC3)c3nc(Nc4ccc(N5CCCC5)cc4)ncc3n12`, the IC50 with PC-3, with MDA-MB-231, with A549, in the experiment with HCT-116 and with MCF7 was more than 50 µM in each case.
With `CN(C)c1ccc(Nc2ncc3c(n2)n(C2CCCC2)c(=O)c2nnnn23)cc1`, the IC50 in the experiment on PC-3 is more than 50 µM; in the experiment with MDA-MB-231, more than 50 µM; with A549 it was 10.1 µM; with HCT-116, more than 50 µM; with MCF7, 2.58 µM.
With `Cc1nnc2c(=O)n(C3CCCC3)c3nc(Nc4ccc(NC5CCCC5)cc4)ncc3n12`, the IC50 was more than 50 µM in the experiment with PC-3; more than 50 µM with MDA-MB-231; 9.29 µM in the experiment with A549; more than 50 µM in the experiment with HCT-116; more than 50 µM with MCF7.
Consider `O=c1c2nncn2c2cnc(Nc3ccc(N4CCOCC4)cc3)nc2n1C1CCCC1`, for which the IC50 with PC-3 was more than 50 µM; in the experiment on MDA-MB-231, 3.5 µM; with A549 it was 38.9 µM; with HCT-116 it was 8.91 µM; in the experiment with MCF7, more than 50 µM.
As a reminder, the inhibition is how much of the control response was suppressed. `CCN1CCN(c2ccc(Nc3ncc4c(n3)n(C3CCCC3)c(=O)c3nncn34)cc2)CC1`: the half-inhibitory concentration (IC50) in the experiment with PC-3 was 3.48 µM; with MDA-MB-231, more than 50 µM; with A549, 1.07 µM; in the experiment with HCT-116, 7.5 µM; in the experiment on MCF7, 0.98 µM. Moreover, the inhibition in experiment [1] came to 27.4%.
`O=c1c2nnnn2c2cnc(Nc3ccc(N4CCCC4)cc3)nc2n1C1CCCC1`: the IC50 was more than 50 µM in the experiment with PC-3; more than 50 µM with MDA-MB-231; 7.86 µM with A549; more than 50 µM with HCT-116; more than 50 µM with MCF7.
For the compound `Cc1nnc2c(=O)n(C3CCCC3)c3nc(Nc4ccc(N5CCC(C)CC5)cc4)ncc3n12`, the IC50 in the experiment on PC-3 is more than 50 µM; with MDA-MB-231, more than 50 µM; in the experiment on A549, more than 50 µM; in the experiment on HCT-116, 11.2 µM; in the experiment on MCF7 it was more than 50 µM.
With `O=c1c2nnnn2c2cnc(Nc3ccc(N4CCSCC4)cc3)nc2n1C1CCCC1`, the concentration for half-maximal inhibition (IC50) is more than 50 µM with PC-3; 37.4 µM with MDA-MB-231; more than 50 µM in the experiment on A549; more than 50 µM in the experiment with HCT-116; more than 50 µM in the experiment with MCF7.
Consider `CC1CCN(c2ccc(Nc3ncc4c(n3)n(C3CCCC3)c(=O)c3nnnn34)cc2)CC1`, for which the IC50 in the experiment on PC-3 is more than 50 µM; with MDA-MB-231, more than 50 µM; in the experiment with A549, 4.92 µM; with HCT-116, more than 50 µM; in the experiment on MCF7, more than 50 µM.
Consider `Cc1nnc2c(=O)n(C3CCCC3)c3nc(Nc4ccc(N5CCSCC5)cc4)ncc3n12`, for which the half-inhibitory concentration (IC50) with PC-3 is more than 50 µM; in the experiment with MDA-MB-231, more than 50 µM; in the experiment with A549 it was 7.19 µM; in the experiment on HCT-116 it was 5.82 µM; with MCF7 it was more than 50 µM.
Turning to `O=c1c2nnnn2c2cnc(Nc3ccc(N4CCC(O)CC4)cc3)nc2n1C1CCCC1`, the IC50 in the experiment on PC-3 is more than 50 µM; with MDA-MB-231 it was 53.5 µM; with A549, more than 50 µM; with HCT-116, 36.3 µM; in the experiment on MCF7, more than 50 µM.
Turning to `Cc1nnc2c(=O)n(C3CCCC3)c3nc(Nc4ccc(N5CCCCC5)cc4)ncc3n12`, the IC50 with PC-3 is more than 50 µM; in the experiment on MDA-MB-231, 6.26 µM; in the experiment with A549, 5.24 µM; with HCT-116, 19.1 µM; in the experiment on MCF7, more than 50 µM.
With `Cc1nnc2c(=O)n(C3CCCC3)c3nc(Nc4ccc(N5CCC(O)CC5)cc4)ncc3n12`, the IC50 with PC-3 is more than 50 µM; in the experiment on MDA-MB-231, more than 50 µM; in the experiment with A549, 21.7 µM; with HCT-116, 18.1 µM; in the experiment on MCF7, more than 50 µM.
In the case of `Cc1nnc2c(=O)n(C3CCCC3)c3nc(Nc4ccc(N(C)C)cc4)ncc3n12`, the IC50 in the experiment on PC-3 is more than 50 µM; with MDA-MB-231, more than 50 µM; in the experiment with A549 it was 8.86 µM; in the experiment with HCT-116, 29.1 µM; in the experiment on MCF7 it was more than 50 µM.
On to `O=c1c2nnnn2c2cnc(Nc3ccc(N4CCN(C5CCCC5)CC4)cc3)nc2n1C1CCCC1`, for which the IC50 is more than 50 µM in the experiment with PC-3; more than 50 µM with MDA-MB-231; more than 50 µM with A549; 2.12 µM in the experiment on HCT-116; more than 50 µM in the experiment on MCF7.
For `CN(C)c1ccc(Nc2ncc3c(n2)n(C2CCCC2)c(=O)c2nncn23)cc1`, the IC50 was more than 50 µM in the experiment with PC-3; more than 50 µM in the experiment with MDA-MB-231; 3.89 µM in the experiment on A549; 19.1 µM in the experiment on HCT-116; 7.28 µM in the experiment with MCF7.
Consider `Cc1nnc2c(=O)n(C3CCCC3)c3nc(Nc4ccc(N5CCC(N6CCN(C)CC6)CC5)cc4)ncc3n12`, for which the IC50 is more than 50 µM in the experiment with PC-3; 5.85 µM in the experiment on MDA-MB-231; 2.38 µM with A549; 12.1 µM with HCT-116; 3.21 µM in the experiment with MCF7.
Taken in the same sequence, the figures for `Cc1nnc2c(=O)n(C3CCCC3)c3nc(Nc4ccc(N5CCOCC5)cc4)ncc3n12` were more than 50 µM, more than 50 µM, 4.29 µM, 8.91 µM and more than 50 µM.
With `O=c1c2nncn2c2cnc(Nc3ccc(N4CCN(C5CCCC5)CC4)cc3)nc2n1C1CCCC1`, the IC50 in the experiment on PC-3 was more than 50 µM; with MDA-MB-231, 3.96 µM; in the experiment on A549, more than 50 µM; with HCT-116, 22.3 µM; in the experiment on MCF7 it was more than 50 µM.
With `O=c1c2nncn2c2cnc(Nc3ccc(N4CCC(O)CC4)cc3)nc2n1C1CCCC1`, the IC50 is more than 50 µM in the experiment with PC-3; 8.1 µM in the experiment with MDA-MB-231; 41.7 µM with A549; 36.1 µM with HCT-116; more than 50 µM with MCF7.
Regarding `O=c1c2nnnn2c2cnc(Nc3ccc(N4CCN(CCO)CC4)cc3)nc2n1C1CCCC1`, the IC50 in the experiment on PC-3 is more than 50 µM; with MDA-MB-231 it was more than 50 µM; in the experiment on A549, 3.85 µM; with HCT-116, more than 50 µM; with MCF7, 2.31 µM.
For the compound `O=c1c2nncn2c2cnc(Nc3ccc(N4CCN(CCO)CC4)cc3)nc2n1C1CCCC1`, the 50% inhibitory concentration (IC50) was 19.1 µM in the experiment on PC-3; more than 50 µM in the experiment with MDA-MB-231; 9.8 µM with A549; 9.71 µM in the experiment on HCT-116; 1.91 µM with MCF7.
In the same order, the values of `CN1CCN(C2CCN(c3ccc(Nc4ncc5c(n4)n(C4CCCC4)c(=O)c4nncn45)cc3)CC2)CC1` are 13.4 µM, more than 50 µM, 2.95 µM, 9.3 µM and more than 50 µM.
As to `CCN1CCN(c2ccc(Nc3ncc4c(n3)n(C3CCCC3)c(=O)c3nnnn34)cc2)CC1`, the half-inhibitory concentration (IC50) was 16.1 µM with PC-3; more than 50 µM in the experiment on MDA-MB-231; 3.57 µM in the experiment on A549; more than 50 µM in the experiment with HCT-116; more than 50 µM in the experiment on MCF7.
Consider `CCN1CCN(c2ccc(N(C(C)=O)c3ncc4c(n3)n(C3CCCC3)c(=O)c3nnc(C)n34)cc2)CC1`, for which the IC50 with PC-3 is more than 50 µM; in the experiment on MDA-MB-231 it was more than 50 µM; in the experiment on A549 it was 20.2 µM; in the experiment on HCT-116, 40.3 µM; with MCF7, more than 50 µM.
For `O=c1c2nncn2c2cnc(Nc3ccc(N4CCCC4)cc3)nc2n1C1CCCC1`, the concentration for half-maximal inhibition (IC50) is 11.3 µM in the experiment on PC-3; more than 50 µM in the experiment with MDA-MB-231; 5.63 µM in the experiment with A549; 49.3 µM in the experiment with HCT-116; more than 50 µM in the experiment with MCF7.
For the compound `CN1CCN(C2CCN(c3ccc(Nc4ncc5c(n4)n(C4CCCC4)c(=O)c4nnnn45)cc3)CC2)CC1`, the IC50 in the experiment with PC-3 was more than 50 µM; with MDA-MB-231, 5.81 µM; in the experiment with A549, 1.28 µM; in the experiment on HCT-116, 7.62 µM; in the experiment with MCF7, more than 50 µM.
For the compound `O=c1c2nnnn2c2cnc(Nc3ccc(NC4CCCC4)cc3)nc2n1C1CCCC1`, the 50% inhibitory concentration (IC50) in the experiment with PC-3 is more than 50 µM; in the experiment with MDA-MB-231, 8.95 µM; in the experiment on A549, more than 50 µM; with HCT-116, 43.2 µM; in the experiment on MCF7 it was more than 50 µM.
For `O=c1c2nnnn2c2cnc(Nc3ccc(N4CCOCC4)cc3)nc2n1C1CCCC1`, the IC50 in the experiment with PC-3 is more than 50 µM; in the experiment with MDA-MB-231 it was 48.5 µM; with A549, 4.81 µM; in the experiment with HCT-116, 43.2 µM; in the experiment with MCF7, more than 50 µM.
For the compound `O=c1c2nncn2c2cnc(Nc3ccc(N4CCSCC4)cc3)nc2n1C1CCCC1`, the IC50 was more than 50 µM in the experiment with PC-3; 6.4 µM in the experiment on MDA-MB-231; 2.12 µM in the experiment on A549; 12 µM in the experiment with HCT-116; more than 50 µM with MCF7.
`CC1CCN(c2ccc(Nc3ncc4c(n3)n(C3CCCC3)c(=O)c3nncn34)cc2)CC1`: the IC50 was more than 50 µM in the experiment with PC-3; 4.9 µM in the experiment with MDA-MB-231; 3.31 µM in the experiment on A549; 12 µM in the experiment on HCT-116; more than 50 µM in the experiment on MCF7.
Take `O=c1c2nncn2c2cnc(Nc3ccc(N4CCCCC4)cc3)nc2n1C1CCCC1`: the concentration for half-maximal inhibition (IC50) with PC-3 was more than 50 µM; in the experiment with MDA-MB-231, 3.85 µM; with A549, 3.11 µM; with HCT-116, 20.1 µM; with MCF7 it was more than 50 µM.
